{
  "source": "ChEMBL document CHEMBL1221208",
  "about": "“ATP-competitive inhibitors of the mitotic kinesin KSP that function via an allosteric mechanism” (Nat Chem Biol, 2007)",
  "experiment": "Inhibition of KSP A356 mutant in 3x IC95 biaryl selected human HCT116 cells using varying ATP levels in presence of saturating levels of microtubule by Lineweaver-Burke plot",
  "assay_type": "cell-based",
  "conditions": "hct-116",
  "data": [
    {"smiles": "O=C1CCc2cc(-c3ccc(C(F)(F)F)cc3)ccc2N1", "values": [
      {"measurement": "Ki", "result": 109, "unit": "nM"}
    ]}
  ]
}
